{
  "source": "patent US20250282768A1",
  "about": "(Janssen Pharmaceutica NV, priority 2022, published 2025)",
  "data": [
    {"system": "p-IKKa levels in L363 (NIK translocated multiple myeloma) cells", "assay": "Assay 2: Effect of compounds on p-IKKa levels in L363 (NIK translocated multiple myeloma) cells", "format": "cell-based", "conditions": "Homo sapiens, L-363, 6 h, read-out: Assay 2 IC50 (nM), p-IKKa (Ser 176/180) in BAFF stimulated L363 cells with MG132, 6 h; average if tested more than once", "method_in_brief": "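Read-out is p-IKKa Ser176/180 by AlphaLISA SureFire in lysates. Cells were BAFF-primed (250 ng/ml) overnight or left unstimulated, then exposed 6 h at 37 °C to compound with MG132 (10 μM), 0.3% DMSO. IC50 from sigmoidal curve fit, normalized between stimulated and unstimulated controls.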", "units": {"IC50": "nM"}, "values": [
      {"compound": "CN1CC[C@@](O)(c2cnn(-c3cccc(-c4ccnc(Nc5cnn(C)c5)n4)n3)c2)C1=O", "note": "(single isomer, unassigned) [Example 76]", "IC50": "> 500"},
      {"compound": "C[C@@H](Nc1nccc(-c2cccc(-c3cc([C@]4(O)CCN(C)C4=O)on3)n2)n1)C(=O)N(C)C", "note": "[Example 175, (R)-2-((4-(6-(5-((R)-3-Hydroxy-1-methyl-2-oxopyrrolidin-3-yl)isoxazol-3-yl)pyridin-2-yl)pyrimidin-2-yl)amino)-N,N-dimethylpropanamide]", "IC50": "> 500"},
      {"compound": "CN1CC[C@@](O)(c2cc(-c3cccc(-c4ccnc(N[C@H]5CCC[C@@H](O)C5)n4)n3)no2)C1=O", "note": "[Example 450, (R)-3-Hydroxy-3-(3-(6-(2-(((1S,3R)-3-hydroxycyclohexyl)amino)pyrimidin-4-yl)pyridin-2-yl)isoxazol-5-yl)-1-methylpyrrolidin-2-one]", "IC50": "50 to 500"},
      {"compound": "CN1CC[C@@](O)(c2cc(-c3cccc(-c4ccnc(Nc5ccnn5C)n4)n3)no2)C1=O", "note": "[Example 26, (R)-3-Hydroxy-1-methyl-3-(3-(6-(2-((1-methyl-1H-pyrazol-5-yl)amino)pyrimidin-4-yl)pyridin-2-yl)isoxazol-5-yl)pyrrolidin-2-one]", "IC50": "< 50"},
      {"compound": "CN1CC[C@](O)(c2ncc(-c3cccc(-c4ccnc(Nc5ccn(C)n5)n4)n3)s2)C1=O", "note": "(single isomer, unassigned) [Example 83]", "IC50": "50 to 500"},
      {"compound": "CN1CC[C@@](O)(c2cc(-c3cccc(-c4ccnc(Nc5cc(Cl)n(C)n5)n4)n3)no2)C1=O", "note": "[Example 279, (R)-3-(3-(6-(2-((5-Chloro-1-methyl-1H-pyrazol-3-yl)amino)pyrimidin-4-yl)pyridin-2-yl)isoxazol-5-yl)-3-hydroxy-1-methylpyrrolidin-2-one]", "IC50": "50 to 500"},
      {"compound": "COc1nn(CC(F)F)cc1Nc1nccc(-c2cccc(-c3cnc([C@]4(O)CCN(C)C4=O)s3)n2)n1", "note": "(single isomer, unassigned) [Example 188, (*R)-3-(5-(6-(2-((1-(2,2-Difluoroethyl)-3-methoxy-1H-pyrazol-4-yl)amino)pyrimidin-4-yl)pyridin-2-yl)thiazol-2-yl)-3-hydroxy-1-methylpyrrolidin-2-one]", "IC50": "< 50"},
      {"compound": "CN1CC[C@@](O)(c2cc(-c3cccc(-c4ccnc(NCC5(O)CC5)n4)n3)no2)C1=O", "note": "[Example 466, (R)-3-Hydroxy-3-(3-(6-(2-(((1-hydroxycyclopropyl)methyl)amino)pyrimidin-4-yl)pyridin-2-yl)isoxazol-5-yl)-1-mehtylpyrrolidin-2-one]", "IC50": "> 500"},
      {"compound": "CN1CC[C@@](O)(c2cc(-c3cccc(-c4ccnc(Nc5cn(C)nn5)n4)n3)no2)C1=O", "note": "[Example 65, (R)-3-Hydroxy-1-methyl-3-(3-(6-(2-((1-methyl-1H-1,2,3-triazol-4-yl)amino)pyrimidin-4-yl)pyridin-2-yl)isoxazol-5-yl)pyrrolidin-2-one]", "IC50": "50 to 500"},
      {"compound": "COc1nn(CC(F)F)cc1Nc1nccc(-c2cccc(-n3cc([C@]4(O)CCN(C)C4=O)nn3)n2)n1", "note": "[Example 122, (R)-3-(1-(6-(2-((1-(2,2-Difluoroethyl)-3-methoxy-1H-pyrazol-4-yl)amino)pyrimidin-4-yl)pyridin-2-yl)-1H-1,2,3-triazol-4-yl)-3-hydroxy-1-methylpyrrolidin-2-one]", "IC50": "< 50"},
      {"compound": "CN1CC[C@@](O)(c2cc(-c3cccc(-c4ccnc(NC5CC(F)(F)C5)n4)n3)no2)C1=O", "note": "[Example 439, (R)-3-(3-(6-(2-((3,3-Difluorocyclobutyl)amino)pyrimidin-4-yl)pyridin-2-yl)isoxazol-5-yl)-3-hydroxy-1-methylpyrrolidin-2-one]", "IC50": "50 to 500"},
      {"compound": "C[C@H](Nc1nccc(-c2cccc(-c3cc([C@]4(O)CCN(C)C4=O)on3)n2)n1)c1ccn2ccnc2c1", "note": "(single isomer, unassigned) [Example 165]", "IC50": "50 to 500"},
      {"compound": "Cc1c(Nc2nccc(-c3cccc(-c4cc([C@]5(O)CCN(C)C5=O)on4)n3)n2)cnn1C(F)F", "note": "[Example 227, (R)-3-(3-(6-(2-((1-(Difluoromethyl)-5-methyl-1H-pyrazol-4-yl)amino)pyrimidin-4-yl)pyridin-2-yl)isoxazol-5-yl)-3-hydroxy-1-methylpyrrolidin-2-one]", "IC50": "< 50"},
      {"compound": "Cc1nn(C)cc1Nc1nccc(-c2cccc(-c3cc([C@]4(O)CCN(C)C4=O)on3)n2)n1", "note": "[Example 29, (R)-3-(3-(6-(2-((1,3-Dimethyl-1H-pyrazol-4-yl)amino)pyrimidin-4-yl)pyridin-2-yl)isoxazol-5-yl)-3-hydroxy-1-methylpyrrolidin-2-one]", "IC50": "< 50"},
      {"compound": "CN1CC[C@@](O)(c2cc(-c3cccc(-c4ccnc(Nc5cnc(CO)cn5)n4)n3)no2)C1=O", "note": "[Example 303, (R)-3-Hydroxy-3-(3-(6-(2-((5-(hydroxymethyl)pyrazin-2-yl)amino)pyrimidin-4-yl)pyridin-2-yl)isoxazol-5-yl)-1-methylpyrrolidin-2-one]", "IC50": "50 to 500"},
      {"compound": "COCc1ccnc(Nc2nccc(-c3cccc(-c4cc([C@]5(O)CCN(C)C5=O)on4)n3)n2)c1", "note": "[Example 260, (R)-3-Hydroxy-3-(3-(6-(2-((4-(methoxymethyl)pyridin-2-yl)amino)pyrimidin-4-yl)pyridin-2-yl)isoxazol-5-yl)-1-methylpyrrolidin-2-one]", "IC50": "< 50"},
      {"compound": "COc1ccc(Nc2nccc(-c3cccc(-c4cc([C@]5(O)CCN(C)C5=O)on4)n3)n2)nn1", "note": "[Example 255, (R)-3-Hydroxy-3-(3-(6-(2-((6-methoxypyridazin-3-yl)amino)pyrimidin-4-yl)pyridin-2-yl)isoxazol-5-yl)-1-methylpyrrolidin-2-one]", "IC50": "50 to 500"},
      {"compound": "CC(Nc1nccc(-c2cccc(-c3cc([C@]4(O)CCN(C)C4=O)on3)n2)n1)c1nnc2ncccn12", "note": "(stereo partly drawn) [Example 395, (3R)-3-(3-(6-(2-((1-([1,2,4]Triazolo[4,3-a]pyrimidin-3-yl)ethyl)amino)pyrimidin-4-yl)pyridin-2-yl)isoxazol-5-yl)-3-hydroxy-1-methylpyrrolidin-2-one]", "IC50": "50 to 500"},
      {"compound": "[2H]C([2H])([2H])n1cc(Nc2nccc(-c3cccc(-c4cc([C@]5(O)CCN(C)C5=O)on4)n3)n2)cn1", "note": "[Example 73, (R)-3-Hydroxy-1-methyl-3-(3-(6-(2-((1-(methyl-d3)-1H-pyrazol-4-yl)amino)pyrimidin-4-yl)pyridin-2-yl)isoxazol-5-yl)pyrrolidin-2-one]", "IC50": "< 50"},
      {"compound": "CN1CC[C@@](O)(c2cc(-c3cccc(-c4ccnc(Nc5ccncc5F)n4)n3)no2)C1=O", "note": "[Example 330, (R)-3-(3-(6-(2-((3-Fluoropyridin-4-yl)amino)pyrimidin-4-yl)pyridin-2-yl)isoxazol-5-yl)-3-hydroxy-1-methylpyrrolidin-2-one]", "IC50": "< 50"},
      {"compound": "C[C@@H](Nc1nccc(-c2cccc(-n3cc([C@]4(O)CCN(C)C4=O)nn3)n2)n1)c1ncccn1", "note": "(single isomer, unassigned) [Example 142]", "IC50": "50 to 500"},
      {"compound": "C[C@H](Nc1nccc(-c2cccc(-c3cc([C@]4(O)CCN(C)C4=O)on3)n2)n1)c1cccnc1", "note": "[Example 374, (R)-3-Hydroxy-1-methyl-3-(3-(6-(2-(((S)-1-(pyridin-3-yl)ethyl)amino)pyrimidin-4-yl)pyridin-2-yl)isoxazol-5-yl)pyrrolidin-2-one]", "IC50": "50 to 500"},
      {"compound": "CN1CC[C@@](O)(c2cc(-c3cccc(-c4ccnc(Nc5cnn(C6CCNC6)c5)n4)n3)no2)C1=O", "note": "(stereo partly drawn) [Example 90, (3R)-3-Hydroxy-1-methyl-3-(3-(6-(2-((1-(pyrrolidin-3-yl)-1H-pyrazol-4-yl)amino)pyrimidin-4-yl)pyridin-2-yl)isoxazol-5-yl)pyrrolidin-2-one]", "IC50": "50 to 500"},
      {"compound": "CN1CC[C@@](O)(c2cc(-c3cccc(-c4ccnc(N[C@H]5CCSC5)n4)n3)no2)C1=O", "note": "(single isomer, unassigned) [Example 457, (R)-3-Hydroxy-1-methyl-3-(3-(6-(2-(((*S)-tetrahydrothiophen-3-yl)amino)pyrimidin-4-yl)pyridin-2-yl)isoxazol-5-yl)pyrrolidin-2-one]", "IC50": "50 to 500"},
      {"compound": "CCn1ccc(Nc2nccc(-c3cccc(-c4cc([C@]5(O)CCN(C)C5=O)on4)n3)n2)n1", "note": "[Example 410, (R)-3-(3-(6-(2-((1-Ethyl-1H-pyrazol-3-yl)amino)pyrimidin-4-yl)pyridin-2-yl)isoxazol-5-yl)-3-hydroxy-1-methylpyrrolidin-2-one]", "IC50": "< 50"},
      {"compound": "CN1CC[C@@](O)(c2cc(-c3cccc(-c4ccnc(NC5COC5)n4)n3)no2)C1=O", "note": "[Example 66, (R)-3-Hydroxy-1-methyl-3-(3-(6-(2-(oxetan-3-ylamino)pyrimidin-4-yl)pyridin-2-yl)isoxazol-5-yl)pyrrolidin-2-one]", "IC50": "50 to 500"},
      {"compound": "C[C@H](Nc1nccc(-c2cccc(-c3cc([C@]4(O)CCN(C)C4=O)on3)n2)n1)c1ccncc1", "note": "(single isomer, unassigned) [Example 155]", "IC50": "50 to 500"},
      {"compound": "CN1CC[C@@](O)(c2cn(-c3cc(C(F)F)cc(-c4ccnc(Nc5cnn(C)c5)n4)n3)nn2)C1=O", "note": "[Example 137, (R)-3-(1-(4-(Difluoromethyl)-6-(2-((1-methyl-1H-pyrazol-4-yl)amino)pyrimidin-4-yl)pyridin-2-yl)-1H-1,2,3-triazol-4-yl)-3-hydroxy-1-methylpyrrolidin-2-one]", "IC50": "< 50"},
      {"compound": "CN1CCn2nc(Nc3nccc(-c4cccc(-c5cc([C@]6(O)CCN(C)C6=O)on5)c4)n3)cc2C1=O", "note": "[Example 23, (R)-2-((4-(3-(5-(3-Hydroxy-1-methyl-2-oxopyrrolidin-3-yl)isoxazol-3-yl)phenyl)pyrimidin-2-yl)amino)-5-methyl-6,7-dihydropyrazolo[1,5-a]pyrazin-4(5H)-one]", "IC50": "50 to 500"},
      {"compound": "CO[C@H](CNc1nccc(-c2cccc(-c3cc([C@]4(O)CCN(C)C4=O)on3)n2)n1)C(F)(F)F", "note": "(single isomer, unassigned) [Example 462, (R)-3-Hydroxy-1-methyl-3-(3-(6-(2-(((*R)-3,3,3-trifluoro-2-methoxypropyl)amino)pyrimidin-4-yl)pyridin-2-yl)isoxazol-5-yl)pyrrolidin-2-one]", "IC50": "50 to 500"},
      {"compound": "CN1CC[C@@](O)(c2cc(-c3cccc(-c4ccnc(N[C@@H]5CCCC[C@@H]5O)n4)n3)no2)C1=O", "note": "(single isomer, unassigned) [Example 336]", "IC50": "> 500"}
    ]}
  ]
}
